As a reminder, the pEC50 is the EC50 on a negative log10 scale, so that one unit is a factor of ten. A high value points to a small EC50. One may read the EC50 as the concentration giving half of the maximal effect. Lower therefore signals an effect from little substance.

Test [1] concerns the target ligand binding domain of human FXR (Homo sapiens (Human), UniProt Q96RI1). Description: FXR ligand binding assay (LanthaScreen TR-FRET, SRC2-2 peptide recruitment). The conditions noted are these: for pEC50: -log EC50, concentration required to produce 50% activation; for Emax: read-out: % Efficacy. For orientation: TR-FRET usually uses a lanthanide donor and a delayed reading to cut background.

For test [2], the target named is human Farnesoid X receptor ligand-binding domain/Gal4 DNA binding domain chimera (Homo sapiens (Human), UniProt Q96RI1). Description: Cell-based assay of FXR activation (FXR-UAS-bla HEK 293T beta-lactamase reporter). The conditions noted are these: cellular FXR beta-lactamase reporter assay; for Emax: HEK-293T, read-out: % Efficacy. A digest of the protocol:
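Readout is cleavage of the CCF4 FRET substrate (409 nm excitation, blue 447 nm signal) by beta-lactamase, expressed under UAS control after a Gal4–human FXR LBD chimera is activated in HEK 293T cells. Compounds were added as 3-fold dilutions for 16 h at 37 °C in 2% charcoal-stripped FBS medium. Curves were fit to a 3-parameter logistic equation to give pEC50, with % activation relative to GW4064.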

[3] abbreviates: extent of activation relative to GW4064.
Where [4] appears, read: FXR-UAS-bla HEK 293T cells, 16 h, pEC50 = -log EC50.

human Farnesoid X receptor ligand-binding domain/Gal4 DNA binding domain chimera, sequence (Q96RI1 262-486, change not shown): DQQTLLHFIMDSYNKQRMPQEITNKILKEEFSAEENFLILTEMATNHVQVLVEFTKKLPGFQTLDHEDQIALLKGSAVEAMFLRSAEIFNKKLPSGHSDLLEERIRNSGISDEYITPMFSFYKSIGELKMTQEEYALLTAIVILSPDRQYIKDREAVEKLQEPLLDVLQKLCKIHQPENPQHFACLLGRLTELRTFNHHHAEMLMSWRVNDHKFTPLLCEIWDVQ
human Farnesoid X receptor ligand-binding domain/Gal4 DNA binding domain chimera, sequence (P04386 1-147 partner): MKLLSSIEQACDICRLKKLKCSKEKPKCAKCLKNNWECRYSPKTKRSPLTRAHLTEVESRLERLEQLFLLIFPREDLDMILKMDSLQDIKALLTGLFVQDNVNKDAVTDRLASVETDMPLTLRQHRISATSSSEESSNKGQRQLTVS
ligand binding domain of human FXR, sequence (Q96RI1 262-486): as the sequence (Q96RI1 262-486, change not shown) above

On to `O=C(NS(=O)(=O)[C@H]1CC[C@@H](O)CC1)c1ccc(N2C[C@@H]3C[C@H]2C[C@H]3OCc2c(-c3c(Cl)cccc3Cl)noc2C2CC2)cc1` [Compound I-220, 4-[(1S,4S,5R)-5-{[5-cyclopropyl-3-(2,6-dichlorophenyl)-1,2-oxazol-4-yl]methoxy}-2-azabicyclo[2.2.1]heptan-2-yl]-N-{[(1s,4s)-4-hydroxycyclohexyl]sulfonyl}benzamide], for which the values for the pEC50 in test [1] and in test [2] (setting [4]) were 8.7 and 9.6, respectively. The “% Efficacy” value came to 154% in test [1] (setting [3]) and 108% in test [2] (setting [3]).

In test [1], `CCCCCCCCS(=O)(=O)NC(=O)c1ccc(N2C[C@@H]3C[C@H]2C[C@H]3OCc2c(-c3c(Cl)cccc3Cl)noc2C2CC2)c(F)c1` [Compound I-192, 4-((1S,4S,5R)-5-((5-cyclopropyl-3-(2,6-dichlorophenyl)isoxazol-4-yl)methoxy)-2-azabicyclo[2.2.1]heptan-2-yl)-3-fluoro-N-(octylsulfonyl)benzamide] registered a pEC50 of 7.9. Further, the values for the Emax in test [1] (setting [3]) and in test [2] (setting [3]) were 152% and 106%, respectively. The 50% effective concentration (EC50) in test [2] (setting [4]) was 0.2 nM.

Turning to `O=C(O)c1cc([C@@H]2CCOC2)c2nc(N3C[C@@H]4C[C@H]3C[C@H]4OCc3c(C4CCC5(CC4)CC5)noc3C3CC3)sc2c1` [Compound I-281, 2-((1S,4S,5R)-5-((5-cyclopropyl-3-(spiro[2.5]octan-6-yl)isoxazol-4-yl)methoxy)-2-azabicyclo[2.2.1]heptan-2-yl)-4-((S)-tetrahydrofuran-3-yl)benzo[d]thiazole-6-carboxylic acid], the negative logarithm of the EC50 (pEC50) in test [1] stood at 7.4. Further, the Emax in test [1] (setting [3]) worked out at 104%; in test [2] (setting [3]), 105%. Also, the EC50 in test [2] (setting [4]) is 15.8 nM.

On to `Cc1cc(N2C(=O)[C@@H]3C[C@H]2C[C@H]3OCc2c(-c3c(Cl)cccc3Cl)noc2C2CC2)ccc1C(=O)O` [Compound I-316, 4-[(1S,4R,5R)-5-{[5-cyclopropyl-3-(2,6-dichlorophenyl)-1,2-oxazol-4-yl]methoxy}-3-oxo-2-azabicyclo[2.2.1]heptan-2-yl]-2-methylbenzoic Acid], for which, in test [1], the pEC50 came out at 7.6. In addition, the Emax in test [1] (setting [3]) stood at 152%; in test [2] (setting [3]), 109%. Also, the EC50 in test [2] (setting [4]) is 7.94 nM.

`COc1cc(N2C[C@@H]3C[C@H]2C[C@H]3OCc2c(-c3c(Cl)cccc3Cl)noc2C2CC2)ccc1C(=O)O` [Compound I-112, 4-((1S,4S,5R)-5-((5-cyclopropyl-3-(2,6-dichlorophenyl)isoxazol-4-yl)methoxy)-2-azabicyclo[2.2.1]heptan-2-yl)-2-methoxybenzoic acid] registered a pEC50 in test [1] of 9.4. Moreover, the Emax in test [1] (setting [3]) was 116%; in test [2] (setting [3]) it was 100%. For the same compound, the midpoint of the response in test [2] (setting [4]), the EC50, lay at 5.01 nM.

In test [1], `O=C(NS(=O)(=O)CCCCCCCCCCNC(=O)[C@H](O)[C@@H](O)[C@H](O)[C@H](O)CO)c1ccc(N2C[C@@H]3C[C@H]2C[C@H]3OCc2c(-c3c(Cl)cccc3Cl)noc2C2CC2)c(F)c1` [Compound I-223, (2R,3S,4R,5R)—N-{10-[({4-[(1S,4S,5R)-5-{[5-cyclopropyl-3-(2,6-dichlorophenyl)-1,2-oxazol-4-yl]methoxy}-2-azabicyclo[2.2.1]heptan-2-yl]-3-fluorophenyl}formamido)sulfonyl]decyl}-2,3,4,5,6-pentahydroxyhexanamide] displayed a pEC50 of 8.6. For the same compound, in test [1] (setting [3]), the Emax is 144%. The compound further showed a concentration for a half-maximal effect (EC50) in test [2] (setting [4]) below 31.6 nM.

In test [1], `O=C(O)c1cc(C2CCCC2)c2nc(N3C[C@H]4C[C@@H]3C[C@@H]4OCc3c(-c4c(Cl)cccc4Cl)noc3C3CC3)sc2c1` [Compound I-285, 4-cyclopentyl-2-[(1R,4R,5S)-5-{[5-cyclopropyl-3-(2,6-dichlorophenyl)-1,2-oxazol-4-yl]methoxy}-2-azabicyclo[2.2.1]heptan-2-yl]-1,3-benzothiazole-6-carboxylic Acid] registered a negative logarithm of the EC50 (pEC50) of 8.9. The figures for the Emax in test [1] (setting [3]) and in test [2] (setting [3]) were 116% and 100%, respectively. Further, the EC50 in test [2] (setting [4]) is 2.51 nM.

In test [1], `O=C(O)c1cc(F)c2nc(N3C[C@@H]4C[C@H]3C[C@H]4OCc3c(-c4cccc(O)c4)noc3C3CC3)sc2c1` [Compound I-292, 2-((1S,4S,5R)-5-((5-cyclopropyl-3-(3-hydroxyphenyl)isoxazol-4-yl)methoxy)-2-azabicyclo[2.2.1]heptan-2-yl)-4-fluorobenzo[d]thiazole-6-carboxylic acid] showed a pEC50 of 6.5. Further, the Emax in test [1] (setting [3]) amounted to 120%. In test [2] (setting [4]), this compound showed an EC50 below 31.6 nM.

As to `O=C(O)c1cc(F)c2nc(N3C[C@@H]4C[C@H]3C[C@H]4OCc3c(-c4c(Cl)cccc4Cl)noc3C3(F)CC3)sc2c1` [Compound I-24, 2-[(1S,4S,5R)-5-{[3-(2,6-dichlorophenyl)-5-(1-fluorocyclopropyl)-1,2-oxazol-4-yl]methoxy}-2-azabicyclo[2.2.1]heptan-2-yl]-4-fluoro-1,3-benzothiazole-6-carboxylic Acid], in test [1], the pEC50 is given as 7.9. Moreover, the values for the Emax in test [1] (setting [3]) and in test [2] (setting [3]) were 180% and 102%, respectively. For the same compound, the EC50 in test [2] (setting [4]) was 0.631 nM.

Consider `CCCS(=O)(=O)NC(=O)c1ccc(N2C[C@@H]3C[C@H]2C[C@H]3OC(=O)c2c(-c3c(Cl)cccc3Cl)noc2C2CC2)cc1` [Compound I-46, (1S,4S,5R)-2-{4-[(propane-1-sulfonyl)carbamoyl]phenyl}-2-azabicyclo[2.2.1]heptan-5-yl 5-cyclopropyl-3-(2,6-dichlorophenyl)-1,2-oxazole-4-carboxylate], for which the negative logarithm of the EC50 (pEC50) in test [1] is 7.9. Also, the results for the Emax in test [1] (setting [3]) and in test [2] (setting [3]) were 174% and 110%, respectively. The midpoint of the response in test [2] (setting [4]), the EC50, lay at 12.6 nM.

Consider `O=C(O)c1cnc(N2C[C@@H]3C[C@H]2C[C@H]3OCc2c(-c3c(Cl)cccc3Cl)noc2C2CC2)c(F)c1` [Compound I-129, 6-[(1S,4S,5R)-5-{[5-cyclopropyl-3-(2,6-dichlorophenyl)-1,2-oxazol-4-yl]methoxy}-2-azabicyclo[2.2.1]heptan-2-yl]-5-fluoropyridine-3-carboxylic Acid], for which the values for the Emax in test [1] (setting [3]) and in test [2] (setting [3]) were 152% and 101%, respectively. Moreover, the EC50 in test [2] (setting [4]) is 3.98 nM.

In test [1], `CCCS(=O)(=O)NC(=O)c1ccc(N2C[C@@H]3C[C@H]2C[C@H]3OCc2c(-c3c(Cl)cccc3Cl)noc2C2CC2)cc1` [Compound I-59, 4-[(1S,4S,5R)-5-{[5-cyclopropyl-3-(2,6-dichlorophenyl)-1,2-oxazol-4-yl]methoxy}-2-azabicyclo[2.2.1]heptan-2-yl]-N-(propane-1-sulfonyl)benzamide] returned a negative logarithm of the EC50 (pEC50) of 8.2. In addition, the Emax in test [1] (setting [3]) was 176%; in test [2] (setting [3]) it was 103%. The compound also showed a concentration for a half-maximal effect (EC50) in test [2] (setting [4]) of 0.1 nM.

Compound `O=C(CCc1ccc(N2C[C@@H]3C[C@H]2C[C@H]3OCc2c(-c3c(Cl)cccc3Cl)noc2C2CC2)c(F)c1)NS(=O)(=O)C1CCOCC1` [Compound I-238, 3-(4-((1S,4S,5R)-5-((5-cyclopropyl-3-(2,6-dichlorophenyl)isoxazol-4-yl)methoxy)-2-azabicyclo[2.2.1]heptan-2-yl)-3-fluorophenyl)-N-((tetrahydro-2H-pyran-4-yl)sulfonyl)propanamide] had a pEC50 in test [1] of 8.6. The Emax came to 176% in test [1] (setting [3]) and 95% in test [2] (setting [3]). The compound also gave a half-maximal effective concentration (EC50) in test [2] (setting [4]) of 2.51 nM.
